These results are taken from US7704971B2, “Uracil reductase inactivators” (SmithKlineBeecham Corporation, priority 1990, dated 2010).

Assay [1] addresses T1, uracil reductase (Rattus norvegicus, UniProt O89000).
T1 construct: from tissue; host or cells: whole animal (rat), endogenous enzyme
T1 sequence (O89000 1-1025): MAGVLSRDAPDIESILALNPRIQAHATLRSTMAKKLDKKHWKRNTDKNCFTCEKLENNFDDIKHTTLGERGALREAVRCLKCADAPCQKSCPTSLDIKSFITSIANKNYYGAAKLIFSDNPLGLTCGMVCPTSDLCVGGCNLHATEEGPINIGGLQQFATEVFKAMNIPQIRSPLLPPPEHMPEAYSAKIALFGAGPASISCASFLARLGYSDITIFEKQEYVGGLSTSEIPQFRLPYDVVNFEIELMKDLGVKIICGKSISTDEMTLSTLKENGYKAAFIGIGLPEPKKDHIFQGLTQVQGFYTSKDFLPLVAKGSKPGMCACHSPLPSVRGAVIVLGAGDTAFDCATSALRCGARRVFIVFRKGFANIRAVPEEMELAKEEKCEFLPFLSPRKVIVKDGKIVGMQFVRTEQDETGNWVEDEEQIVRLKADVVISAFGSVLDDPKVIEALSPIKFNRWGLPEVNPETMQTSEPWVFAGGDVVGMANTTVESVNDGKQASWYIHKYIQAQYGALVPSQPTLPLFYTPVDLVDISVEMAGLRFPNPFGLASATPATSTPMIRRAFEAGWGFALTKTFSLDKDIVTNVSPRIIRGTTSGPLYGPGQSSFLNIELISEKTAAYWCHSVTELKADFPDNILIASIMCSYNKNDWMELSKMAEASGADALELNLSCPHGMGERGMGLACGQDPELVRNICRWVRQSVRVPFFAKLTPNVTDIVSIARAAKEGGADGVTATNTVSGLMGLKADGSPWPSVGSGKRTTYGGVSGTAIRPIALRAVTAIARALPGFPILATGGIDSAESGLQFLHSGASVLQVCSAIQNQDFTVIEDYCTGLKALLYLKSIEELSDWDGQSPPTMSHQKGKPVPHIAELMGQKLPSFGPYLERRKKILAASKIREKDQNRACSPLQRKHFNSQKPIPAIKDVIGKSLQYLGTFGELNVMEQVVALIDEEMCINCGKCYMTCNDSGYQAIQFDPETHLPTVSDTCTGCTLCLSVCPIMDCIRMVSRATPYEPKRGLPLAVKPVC
As to the kind of experiment: Inactivation of uracil reductase in vivo (plasma uracil and thymine), rats. The procedure: (§1) The maximum effect occurred at about 0.1 mg/kg p.o. in rats, at 0.5 to 1 mg/kg s.c. in mice, and at approximately 1 mg/kg intravenously (i.v.) in dogs and probably represents total inactivation of uracil reductase. These doses elevated mouse, dog, and rat plasma uracil from about 3 uM to about 50-60 uM. […] The ED50 equals 0.01 mg/kg.

The subject of assay [2] is uracil reductase. The assay is described as follows: Inactivation of uracil reductase in vivo (plasma uracil and thymine), dogs. The procedure: as §1

Each structure is given as a SMILES string.

Broadly, the ED50 is the dose at which the effect has come halfway, by size or by number of responders. As to `C#Cc1c[nH]c(=O)[nH]c1=O` [5-ethynyluracil], the plasma uracil at uracil reductase [1] (rat, at dose of maximum effect, elevated from about 3 uM) fell in the range of 50 to 60 µM; with uracil reductase [2] (dog, at dose of maximum effect, elevated from about 3 uM), 50 to 60 µM. On uracil reductase [1] (rat, oral doses, 4 hours after dosing, read-out: ED50 (increased plasma levels of uracil and thymine)), the ED50 amounted to 0.01 mg/kg. Moreover, the “dose at which the maximum effect on plasma uracil and thymine occurred” value was “about 0.1 mg/kg” at uracil reductase [1] (rats, p.o.) and “approximately 1 mg/kg” in the assay on uracil reductase [2] (dogs, intravenously (i.v.)).
